# Data published in patent EP0523769B1, “Gram-positive alkaliphilic microorganisms” (GENENCOR INTERNATIONAL, INC., priority 1991, dated 1993).
# Test system: Gram-positive alkaliphilic bacteria
# Assay: Antibiotic sensitivity, susceptibility test discs (characters 84-105)
# Assay type: cell-based
Compound,"Percentage Positive States, antibiotic sensitivity (CLUSTER 1) [%]","Percentage Positive States, antibiotic sensitivity (CLUSTER 2) [%]","Percentage Positive States, antibiotic sensitivity (CLUSTER 3) [%]","Percentage Positive States, antibiotic sensitivity (CLUSTER 4) [%]","Percentage Positive States, antibiotic sensitivity (CLUSTER 5) [%]","Percentage Positive States, antibiotic sensitivity (CLUSTER 6) [%]"
Gentamycin,60,0,50,50,50,25
NC[C@@H]1O[C@H](O[C@H]2[C@@H](O)[C@H](O[C@@H]3[C@@H](O)[C@H](N)C[C@H](N)[C@H]3O[C@H]3O[C@H](CN)[C@@H](O)[C@H](O)[C@H]3N)O[C@@H]2CO)[C@H](N)[C@@H](O)[C@@H]1O [Neomycin],0,0,0,50,17,0
Tetracyclin,80,60,0,100,100,25
Polymixin,40,20,0,0,0,0
